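Cells were grown in 96-well plates and exposed to each compound for 48 hours at five concentrations; endpoints were interpolated linearly between bracketing concentrations, or set to the highest concentration if not reached. GI50 is the concentration that inhibits growth by half. TGI denotes the concentration required for complete inhibition of growth.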
Columns and labels:
Assay in all cases: DTP human tumour cell line panel, 48 h
786-0 renal = tested on: 786-0 renal
A498 renal = tested on: A498 renal
A549 NSCLC = tested on: A549 NSCLC
ACHN renal = tested on: ACHN renal
BT-549 breast = tested on: BT-549 breast
CAKI-1 renal = tested on: CAKI-1 renal
CCRF-CEM leukemia = tested on: CCRF-CEM leukemia
COLO 205 colon = tested on: COLO 205 colon
DU-145 prostate = tested on: DU-145 prostate
EKVX NSCLC = tested on: EKVX NSCLC
HCC-2998 colon = tested on: HCC-2998 colon
HCT-116 colon = tested on: HCT-116 colon
HCT-15 colon = tested on: HCT-15 colon
HL-60(TB) leukemia = tested on: HL-60(TB) leukemia
HOP-62 NSCLC = tested on: HOP-62 NSCLC
HOP-92 NSCLC = tested on: HOP-92 NSCLC
HS 578T breast = tested on: HS 578T breast
HT29 colon = tested on: HT29 colon
IGROV1 ovarian = tested on: IGROV1 ovarian
K-562 leukemia = tested on: K-562 leukemia
KM12 colon = tested on: KM12 colon
LOX IMVI melanoma = tested on: LOX IMVI melanoma
M14 melanoma = tested on: M14 melanoma
MALME-3M melanoma = tested on: MALME-3M melanoma
MCF7 breast = tested on: MCF7 breast
MDA-MB-231 breast = tested on: MDA-MB-231 breast
MDA-MB-435 = tested on: MDA-MB-435
MDA-MB-468 breast = tested on: MDA-MB-468 breast
MOLT-4 leukemia = tested on: MOLT-4 leukemia
NCI-H226 lung = tested on: NCI-H226 lung
NCI-H23 lung = tested on: NCI-H23 lung
NCI-H460 lung = tested on: NCI-H460 lung
NCI-H522 lung = tested on: NCI-H522 lung
OVCAR-3 ovarian = tested on: OVCAR-3 ovarian
OVCAR-4 ovarian = tested on: OVCAR-4 ovarian
OVCAR-5 ovarian = tested on: OVCAR-5 ovarian
OVCAR-8 ovarian = tested on: OVCAR-8 ovarian
PC-3 prostate = tested on: PC-3 prostate
RPMI-8226 leukemia = tested on: RPMI-8226 leukemia
RXF 393 renal = tested on: RXF 393 renal
SF-268 CNS = tested on: SF-268 CNS
SF-295 CNS = tested on: SF-295 CNS
SF-539 CNS = tested on: SF-539 CNS
SK-MEL-2 melanoma = tested on: SK-MEL-2 melanoma
SK-MEL-28 melanoma = tested on: SK-MEL-28 melanoma
SK-MEL-5 melanoma = tested on: SK-MEL-5 melanoma
SK-OV-3 ovarian = tested on: SK-OV-3 ovarian
SN12C renal = tested on: SN12C renal
SNB-19 CNS = tested on: SNB-19 CNS
SNB-75 CNS = tested on: SNB-75 CNS
SR leukemia = tested on: SR leukemia
SW-620 colon = tested on: SW-620 colon
T-47D breast = tested on: T-47D breast
TK-10 renal = tested on: TK-10 renal
U251 CNS = tested on: U251 CNS
UACC-257 melanoma = tested on: UACC-257 melanoma
UACC-62 melanoma = tested on: UACC-62 melanoma
UO-31 renal = tested on: UO-31 renal

For O=C(c1ccc(Cl)cc1)C1[C@H](c2ccccc2Br)[C@@H](c2ccccc2)NC12C(=O)Nc1ccc(Br)cc12 (stereo partly specified), the GI50 (786-0 renal) was 18.4 µM, the TGI (786-0 renal) was > 49 µM and the GI50 (A498 renal) was > 49 µM. For the same compound, the TGI (A498 renal) was > 49 µM, the GI50 (A549 NSCLC) was 4.84 µM and the TGI (A549 NSCLC) was > 49 µM. The GI50 (ACHN renal) was 10 µM, the TGI (ACHN renal) was > 49 µM and the GI50 (BT-549 breast) was 5.97 µM. The TGI (BT-549 breast) was > 49 µM, the GI50 (CAKI-1 renal) was 1.88 µM and the TGI (CAKI-1 renal) was > 49 µM. The GI50 (CCRF-CEM leukemia) was 5.97 µM, the TGI (CCRF-CEM leukemia) was 26.5 µM and the GI50 (COLO 205 colon) was 7.1 µM. For the same compound, the TGI (COLO 205 colon) was 15.5 µM, the GI50 (DU-145 prostate) was 9.36 µM and the TGI (DU-145 prostate) was > 49 µM. For the same compound, the GI50 (EKVX NSCLC) was 13.3 µM, the TGI (EKVX NSCLC) was > 49 µM and the GI50 (HCC-2998 colon) was 8.14 µM. For the same compound, the TGI (HCC-2998 colon) was 33.8 µM, the GI50 (HCT-116 colon) was 2.34 µM and the TGI (HCT-116 colon) was 11.7 µM. The GI50 (HCT-15 colon) was 7.65 µM, the TGI (HCT-15 colon) was > 49 µM and the GI50 (HL-60(TB) leukemia) was 8.67 µM. For the same compound, the TGI (HL-60(TB) leukemia) was 32.5 µM, the GI50 (HOP-62 NSCLC) was 15.6 µM and the TGI (HOP-62 NSCLC) was > 49 µM. The GI50 (HOP-92 NSCLC) was 3.28 µM, the TGI (HOP-92 NSCLC) was > 49 µM and the GI50 (HS 578T breast) was 7.13 µM. The TGI (HS 578T breast) was > 49 µM, the GI50 (HT29 colon) was 6.21 µM and the TGI (HT29 colon) was 17.2 µM. The GI50 (IGROV1 ovarian) was 6.71 µM, the TGI (IGROV1 ovarian) was > 49 µM and the GI50 (K-562 leukemia) was 6.65 µM. The TGI (K-562 leukemia) was > 49 µM, the GI50 (KM12 colon) was 7.46 µM and the TGI (KM12 colon) was 23.4 µM. The GI50 (LOX IMVI melanoma) was 4.95 µM, the TGI (LOX IMVI melanoma) was 13.5 µM and the GI50 (M14 melanoma) was 7.81 µM. For the same compound, the TGI (M14 melanoma) was 34.9 µM, the GI50 (MALME-3M melanoma) was 13.1 µM and the TGI (MALME-3M melanoma) was > 49 µM. The GI50 (MCF7 breast) was 2.64 µM, the TGI (MCF7 breast) was > 49 µM and the GI50 (MDA-MB-231 breast) was 5.01 µM. The TGI (MDA-MB-231 breast) was 23 µM, the GI50 (MDA-MB-435) was 7.74 µM and the TGI (MDA-MB-435) was 22.3 µM. It also gave a GI50 (MDA-MB-468 breast) of 1.55 µM, a TGI (MDA-MB-468 breast) of 14.2 µM and a GI50 (MOLT-4 leukemia) of 2.4 µM. The TGI (MOLT-4 leukemia) was 25.2 µM, the GI50 (NCI-H226 lung) was 5.52 µM and the TGI (NCI-H226 lung) was > 49 µM. The GI50 (NCI-H23 lung) was 7.91 µM, the TGI (NCI-H23 lung) was > 49 µM and the GI50 (NCI-H460 lung) was 5.94 µM. For the same compound, the TGI (NCI-H460 lung) was 15 µM, the GI50 (NCI-H522 lung) was 2.44 µM and the TGI (NCI-H522 lung) was 26.2 µM. The GI50 (OVCAR-3 ovarian) was 5.07 µM, the TGI (OVCAR-3 ovarian) was 29.5 µM and the GI50 (OVCAR-4 ovarian) was 10.1 µM. The TGI (OVCAR-4 ovarian) was > 49 µM, the GI50 (OVCAR-5 ovarian) was 10.2 µM and the TGI (OVCAR-5 ovarian) was > 49 µM. The GI50 (OVCAR-8 ovarian) was 11 µM, the TGI (OVCAR-8 ovarian) was > 49 µM and the GI50 (PC-3 prostate) was 2.53 µM. For the same compound, the TGI (PC-3 prostate) was 33.4 µM, the GI50 (RPMI-8226 leukemia) was 8.15 µM and the TGI (RPMI-8226 leukemia) was > 49 µM. It also gave a GI50 (RXF 393 renal) of 2.2 µM, a TGI (RXF 393 renal) of 23.3 µM and a GI50 (SF-268 CNS) of 3.97 µM. The TGI (SF-268 CNS) was > 49 µM, the GI50 (SF-295 CNS) was 12.2 µM and the TGI (SF-295 CNS) was > 49 µM. For the same compound, the GI50 (SF-539 CNS) was > 49 µM, the TGI (SF-539 CNS) was > 49 µM and the GI50 (SK-MEL-2 melanoma) was 7.37 µM. For the same compound, the TGI (SK-MEL-2 melanoma) was > 49 µM, the GI50 (SK-MEL-28 melanoma) was 20.3 µM and the TGI (SK-MEL-28 melanoma) was > 49 µM. The GI50 (SK-MEL-5 melanoma) was 10.6 µM, the TGI (SK-MEL-5 melanoma) was 38 µM and the GI50 (SK-OV-3 ovarian) was 13.6 µM. The TGI (SK-OV-3 ovarian) was > 49 µM, the GI50 (SN12C renal) was 5.33 µM and the TGI (SN12C renal) was 14 µM. The GI50 (SNB-19 CNS) was 23.2 µM, the TGI (SNB-19 CNS) was > 49 µM and the GI50 (SNB-75 CNS) was 1.31 µM. The TGI (SNB-75 CNS) was > 49 µM, the GI50 (SR leukemia) was 3.01 µM and the TGI (SR leukemia) was 18.7 µM. The GI50 (SW-620 colon) was 9.5 µM, the TGI (SW-620 colon) was > 49 µM and the GI50 (T-47D breast) was 3.88 µM. The TGI (T-47D breast) was > 49 µM, the GI50 (TK-10 renal) was 20.4 µM and the TGI (TK-10 renal) was > 49 µM. It also gave a GI50 (U251 CNS) of 8.25 µM, a TGI (U251 CNS) of 31.6 µM and a GI50 (UACC-257 melanoma) of 10 µM. The TGI (UACC-257 melanoma) was > 49 µM, the GI50 (UACC-62 melanoma) was 6.59 µM and the TGI (UACC-62 melanoma) was > 49 µM. For the same compound, the GI50 (UO-31 renal) was 4.83 µM and the TGI (UO-31 renal) was > 49 µM.

Source: PubChem BioAssay (NCI)
